Patent US10357533B2, “Drug for the effective control of acute and or chronic pain and a method for its administration” (PVP LABS PTE. LTD., priority 2016, dated 2019)
Where a SMILES comes first, the peptide text is derived from it. [ ]: non-standard residue; d: D form.

Experiments:
Type in all cases: in vivo
mice [1] = assay: Duration of analgesic effect in the tail flick test in mice
Procedure: (§1) This stage involved selecting the effective doses of peptide compound in the tail flick test in mice after a single subcutaneous administration of the substance at doses of 0.01, 0.05, 0.1, 0.5, 0.7, 1 and 5 mg/kg. Tail flick method is based on a spinal flexion reflex in response to a progressively increasing effect of thermal radiation on the surface of skin. A pain stimulus was applied to the tail locally, by the action of thermal radiation, using a TSE Systems analgesiometer (Germany). Stimulus intensity was set, corresponding to an increase in temperature from 30° C. to 60° C. over 13 seconds. The tail flick latency (TFL) of 13 seconds was used as the maximum allowable time of stimulation. The mice in test groups were given peptide compound, and control group mice were given the solvent (water for injections) by subcutaneous. Tail flick latency was evaluated 40 minutes after the administration of the study substance or solvent. The analysis of experimental results involved calculating the maximum possible effect (MPE).
The duration of analgesic effect of peptide compound was evaluated in the tail flick test in mice as described above.
Peptide compound was administered to mice subcutaneously at a doses of 0.5 mg/kg, 1.5 mg/kg and 4.5 mg/kg. The control group of animals was given a subcutaneous injection of the vehicle (water for injections). TFL test was evaluated in mice that received peptide compound at 30 minutes and at 1, 2, 4, 6, and 8 hours after dosing.

mice [2] = assay: Tail flick test in mice, dose-dependent analgesic effect
Procedure: as §1

mice [3] = assay: Antinociceptive tolerance and withdrawal syndrome, tail flick test in mice; details: for TFL, s, Baseline values (Mean ± SEM): before administering
Procedure: The tail flick test was the main method of evaluating peptide compound antinociceptive tolerance and withdrawal syndrome. The test involved evaluating tail flick latency (TFLtest). Baseline tail flick latency TFLbase was evaluated before administering the substances. The test was performed in outbred male mice.
The animals were randomized into 4 groups of 10 animals in each group: Group 1: control—the animals were administered subcutaneous injections of water for injections for 14 days; Group 2: single peptide compound administration group—the animals were administered water for injections for 13 days and peptide compound at a dose of 0.5 mg/kg on day 14 by subcutaneous injection; Group 3: chronic peptide compound administration group—the animals were administered with peptide compound at a dose of 0.5 mg/kg by subcutaneous injection for 14 days; Group 4: withdrawal group—the animals were administered with peptide compound at a dose of 0.5 mg/kg by subcutaneous injection for 14 days, withdrawal test was evaluated after 48 hours.
The last injection of the drug/water to groups 1-3 was administered 40 minutes before the test.

mice [4] = assay: Balancing on a horizontal rod test in mice
Procedure: The substance was injected intraperitoneally in identical weight amounts to laboratory animals in the experimental and control groups, respectively. […] The measurement was started 15 minutes after injection.
Animals were placed on a wooden rod with a diameter of 2 cm and 40 cm long, at a height of not less than 60 cm. Then we recorded the duration maintenance of equilibrium on the rod. We processed the results using single factor dispersal analysis ANOVA.

[5] = 0.05 mg/kg subcutaneous, 40 minutes
[6] = 0.1 mg/kg subcutaneous, 40 minutes
[7] = 0.5 mg/kg subcutaneous, 40 minutes
[8] = 0.7 mg/kg subcutaneous, 40 minutes
[9] = 1 mg/kg subcutaneous, 40 minutes
[10] = 5 mg/kg subcutaneous, 40 minutes
[11] = 0.5 mg/kg subcutaneous for 14 days, withdrawal test after 48 hours

Structure (SMILES): N=C(N)NCCC[C@@H](NC(=O)[C@@H](N)Cc1ccc(O)cc1)C(=O)N[C@@H](Cc1ccccc1)C(=O)NCC(N)=O [Peptide compound, H-Tyr-D-Arg-Phe-Gly-NH2] (H-Y[dR]FG-NH2)
- MPE, % (Mean ± SEM) (mice [1]; 0.5 mg/kg subcutaneous, 0.5 hours): 45.6 ± 13.31%
- MPE, % (Mean ± SEM) (mice [1]; 0.5 mg/kg subcutaneous, 1 hours): 49.9 ± 11.54%
- MPE, % (Mean ± SEM) (mice [1]; 0.5 mg/kg subcutaneous, 2 hours): 15.5 ± 4.78%
- MPE, % (Mean ± SEM) (mice [1]; 0.5 mg/kg subcutaneous, 4 hours): 6.3 ± 2.43%
- MPE, % (Mean ± SEM) (mice [1]; 0.5 mg/kg subcutaneous, 6 hours): 6.3 ± 2.94%
- MPE, % (Mean ± SEM) (mice [1]; 0.5 mg/kg subcutaneous, 8 hours): −2.6 ± 3.18%
- MPE, % (Mean ± SEM) (mice [1]; 1.5 mg/kg subcutaneous, 0.5 hours): 97.2 ± 2.78%
- MPE, % (Mean ± SEM) (mice [1]; 1.5 mg/kg subcutaneous, 1 hours): 62.7 ± 14.4%
- MPE, % (Mean ± SEM) (mice [1]; 1.5 mg/kg subcutaneous, 2 hours): 33.4 ± 4.85%
- MPE, % (Mean ± SEM) (mice [1]; 1.5 mg/kg subcutaneous, 4 hours): 25.6 ± 11.69%
- MPE, % (Mean ± SEM) (mice [1]; 1.5 mg/kg subcutaneous, 6 hours): 4.6 ± 7.8%
- MPE, % (Mean ± SEM) (mice [1]; 1.5 mg/kg subcutaneous, 8 hours): 5.3 ± 3.46%
- MPE, % (Mean ± SEM) (mice [1]; 4.5 mg/kg subcutaneous, 0.5 hours): 100.0 ± 0.00%
- MPE, % (Mean ± SEM) (mice [1]; 4.5 mg/kg subcutaneous, 1 hours): 100.0 ± 0.00%
- MPE, % (Mean ± SEM) (mice [1]; 4.5 mg/kg subcutaneous, 2 hours): 100.0 ± 0.00%
- MPE, % (Mean ± SEM) (mice [1]; 4.5 mg/kg subcutaneous, 4 hours): 49.9 ± 10.21%
- MPE, % (Mean ± SEM) (mice [1]; 4.5 mg/kg subcutaneous, 6 hours): 6.5 ± 5.94%
- MPE, % (Mean ± SEM) (mice [1]; 4.5 mg/kg subcutaneous, 8 hours): 2.6 ± 4.0%
- maximum duration of the analgesic effect (mice [1]; after dosing with 1.5 mg/kg and 4.5 mg/kg): 4 h
- Proportion of the maximum possible effect (MPE), % (mice [2]; 0.01 mg/kg subcutaneous, 40 minutes): 18.7%
- TFL, s (Mean ± SEM) (mice [2]; 0.01 mg/kg subcutaneous, 40 minutes after administration): 5.89 ± 0.19 s
- Proportion of the maximum possible effect (MPE), % (mice [2]; [5]): 42.5%
- TFL, s (Mean ± SEM) (mice [2]; [5]): 7.97 ± 0.78 s
- Proportion of the maximum possible effect (MPE), % (mice [2]; [6]): 47.0%
- TFL, s (Mean ± SEM) (mice [2]; [6]): 8.36 ± 0.68 s
- Proportion of the maximum possible effect (MPE), % (mice [2]; [7]): 55.7%
- TFL, s (Mean ± SEM) (mice [2]; [7]): 9.12 ± 0.92 s
- Proportion of the maximum possible effect (MPE), % (mice [2]; [8]): 57.5%
- TFL, s (Mean ± SEM) (mice [2]; [8]): 10.15 ± 0.74 s
- Proportion of the maximum possible effect (MPE), % (mice [2]; [9]): 94.6%
- TFL, s (Mean ± SEM) (mice [2]; [9]): 12.53 ± 0.24 s
- Proportion of the maximum possible effect (MPE), % (mice [2]; [10]): 100%
- TFL, s (Mean ± SEM) (mice [2]; [10]): 13.00 ± 0 s
- higher level of activity in comparison with morphine (mice [2]; tail flick): 10-15 times
- dose of morphine with close activity (mice [2]; tail flick, peptide compound 0.1 mg/kg dose): ~4 mg/kg
- dose of morphine with close activity (mice [2]; tail flick, peptide compound 0.5 mg/kg dose): 7 to 8 mg/kg
- dose at which the effect of full analgesia was observed (mice [2]; tail flick, subcutaneous): 1 mg/kg
- MPE, % (Mean ± SEM) (mice [3]; 0.5 mg/kg subcutaneous chronic dosing for 14 days): 50.5 ± 13.92 %
- TFL, s, After dosing (Mean ± SEM) (mice [3]; 0.5 mg/kg subcutaneous chronic dosing for 14 days, 40 minutes before the test): 8.6 ± 1.25 s
- MPE, % (Mean ± SEM) (mice [3]; [11]): 1.3 ± 3.72%
- TFL, s, After dosing (Mean ± SEM) (mice [3]; [11]): 4.8 ± 0.36 s
- MPE, % (Mean ± SEM) (mice [3]; 0.5 mg/kg subcutaneous single dose on day 14): 43.3 ± 11.19 %
- TFL, s, After dosing (Mean ± SEM) (mice [3]; 0.5 mg/kg subcutaneous single dose on day 14, 40 minutes before the test): 8.0 ± 1.03 s
- tolerance or withdrawal syndrome (mice [3]; 0.5 mg/kg subcutaneously, single dosing or chronic treatment): lack of tolerance or withdrawal syndrome
- TFL, s, Baseline values (Mean ± SEM) (mice [3]; group 0.5 mg/kg chronic dosing): 4.6 ± 0.26 s
- TFL, s, Baseline values (Mean ± SEM) (mice [3]; group 0.5 mg/kg single dose): 4.5 ± 0.36 s
- TFL, s, Baseline values (Mean ± SEM) (mice [3]; group 0.5 mg/kg withdrawal): 4.7 ± 0.24 s
- reduced activity in horizontal movement on the rod (mice [4]; higher doses 20-100 mg/kg): 10-20%
- maintaining balance on a horizontal rod, experimental vs control groups (mice [4]; intraperitoneally): did not observe significant differences
